Source: US20080214563A1, “Benzimidazole Thiophene Compounds As Plk Modulators” (priority 2005, published 2008)

What was measured:
MX-1 = experiment: Cell-Titer Glo Cell Growth Inhibition Assay, MX-1; assay type: cell-based; settings: Homo sapiens, MX1, CellTiter-Glo, 72 h, read-out: CTG MX-1 IC50
Protocol: (§1) A549-L (human lung), BT474 (human breast), Colo 205 (human colon), H1299 (human lung), Hela (human cervix), HCT-116 (human colon), HN5 (human head and neck), HT29 (human colon), LNCap (human prostate), MCF7 (human breast), MDA-MB468 (human breast), MX-1 (human breast), RPMI 8226 (human peripheral blood), SKOV3 (human ovary) and P388 (murine leukemia) cell lines were cultured in RPMI1640 containing 10% fetal bovine serum at 37° C. in a 5% CO2 incubator. Cell lines were split into T75 flasks (Falcon #353136) two to three days prior to assay set up at density which yields approximately 70-80% confluency at time of harvest for assay. Cells were harvested using 0.25% trypsin with EDTA (Glibco/Invitrogen #25200-056), Cell counts were performed on cell suspensions using Trypan Blue exclusion staining, cells were then plated in 105 uL of culture media per well at the following densities in 96 well Costar #3916 black flat bottom plates: All human cell lines were plated at 500 cells/well. P388 were plated at 250 cells/well. All plates were placed at 5% CO2 37° C. overnight and then test compounds were added the following day. One plate of each cell type is treated with CellTiter-Glo (Promega #G7573) for a day 0 proliferation measurement and read as described below. The test compounds are prepared in clear U bottom polypropylene 96 well plates (Falcon #35-1190 with consecutive two fold dilutions. 9 uL of these dilutions was added into each well of the cell plates. The final concentration of DMSO in all wells is 0.15%. Cells were incubated at 37° C., 5% CO2 for 72 h. Following 72 h of incubation with compounds each plate was developed and read. CellTiter-Glo reagent was added to assay plates using a volume equivalent to the cell culture volume in the wells. Plates were shaken for approximately two minutes and incubated at room temperature for approximately 15 min and the chemiluminescent signal is read on the Victor V or Envison 2100 reader. […] Concentration of compound that inhibited 50% of cell growth (IC50) was analysis by 4 or 6 parameter fit of data using XLfit, value of no cell addition was subtracted from all samples for background.

SKOV3 = experiment: Cell-Titer Glo Cell Growth Inhibition Assay, SKOV-3; assay type: cell-based; settings: Homo sapiens, SK-OV-3, CellTiter-Glo, 72 h, read-out: CTG SKOV-3 IC50
Protocol: as §1

RKO = experiment: Methylene Blue Cell Growth Inhibition Assay, RKO; assay type: cell-based; settings: Homo sapiens, 72 h, read-out: MEB RKO IC50
Protocol: (§2) Normal human foreskin fibroblasts (HFF), human colon (HCT116, RKO), lung (H460, A549) and breast (MCF7) tumor cell lines were cultured in high glucose DMEM (Life Technologies) containing 10% fetal bovine serum (FBS) at 37° C. in a humidified 5% CO2, 95% air incubator. Cells were harvested using trypsin/EDTA, counted using a haemocytometer, and plated in 100 μL of culture media per well, at the following densities, in a 96-well tissue culture plate (Falcon 3075): HFF 5,000 cells/well, HCT116 3,000 cells/well, RKO 2,500 cells/well, H460 2,500 cells/well, A549 5,000 cells/well, MCF7 4,000 cells/well. The next day, compounds were diluted in low glucose DMEM containing 100 μg/mL gentamicin, at twice the final required concentration, from 10 mM stock solutions in DMSO. 100 μL/well of these dilutions were added to the 100 μL of media currently in the assay plates. Medium containing 0.6% DMSO was added to control wells. The final concentration of DMSO in all wells was 0.3%. Cells were incubated at 37° C., 5% CO2 for 72 h. Medium was removed by aspiration. Cell biomass was estimated by staining cells with 80 μL per well methylene blue (Sigma M9140, 0.5% in 50:50 ethanol:water), and incubation at room temperature for 30-60 min. Stain was removed by aspiration and the plates rinsed by immersion in water, then air-dried. To release stain from the cells, 100 μL of solubilization solution was added (1% N-lauroyl sarcosine, Sodium salt, Sigma L5125, in PBS), and plates were shaken gently for about 30 min. Optical density at 620 nm was measured on a microplate reader. Percent inhibition of cell growth was calculated relative to vehicle treated control wells. Concentration of compound that inhibits 50% of cell growth (IC50) was interpolated using nonlinear regression (Levenberg-Marquardt) and the equation, y=Vmax*(1−(x/(K+x)))+Y2, where “K” was equal to the IC50.

[1] = Intravenous pharmacokinetics in CD-1 mouse; assay type: in vivo; settings: plasma, iv bolus, male CD-1 mouse, dose 1.9-7.4 mg/kg per compound (Table 3); for clearance: read-out: Plasma CL
HCT116 = experiment: Methylene Blue Cell Growth Inhibition Assay, HCT116; assay type: cell-based; settings: Homo sapiens, HCT-116, 72 h, read-out: MEB HCT116 IC50
Protocol: as §2

HT29 = experiment: Cell-Titer Glo Cell Growth Inhibition Assay, HT29; assay type: cell-based; settings: Homo sapiens, HT-29, CellTiter-Glo, 72 h, read-out: CTG HT29 IC50
Protocol: as §1

Row | Compound | IC50 (MX-1) [nM] | IC50 (SKOV3) [nM] | IC50 (RKO) [nM] | AUC(0-t) [1] [ng·h/mL] | clearance [1] [mL/min/kg] | IC50 (HCT116) [nM] | IC50 (HT29) [nM]
1 | C[C@@H](Oc1cc(-n2cnc3cc(-c4ccc(N5CCNCC5)nc4)ccc32)sc1C(N)=O)c1ccccc1C(F)(F)F [Example 1, 5-{5-[6-(1-piperazinyl)-3-pyridinyl]-1H-benzimidazol-1-yl}-3-({(1R)-1-[2-(trifluoromethyl)phenyl]ethyl}oxy)-2-thiophenecarboxamide] | < 100 | 100 to 1000 | < 100 | 3420 | 23.5 | 100 to 1000 | < 100
2 | C[C@@H](Oc1cc(-n2cnc3cc(-c4ccc(N5CCNCC5)nc4)ccc32)sc1C(N)=O)c1ccccc1Cl [Example 7, 3-{[(1R)-1-(2-Chlorophenyl)ethyl]oxy}-5-{5-[6-(1-piperazinyl)-3-pyridinyl]-1H-benzimidazol-1-yl}-2-thiophenecarboxamide] | 100 to 1000 | 100 to 1000 | < 100 | 3740 | 33 | 100 to 1000 | < 100
3 | C[C@@H](Oc1cc(-n2cnc3cc(-c4cnn(C)c4)ccc32)sc1C(N)=O)c1ccccc1Cl [Example 9, 3-{[(1R)-1-(2-Chlorophenyl)ethyl]oxy}-5-[5-(1-methyl-1H-pyrazol-4-yl)-1H-benzimidazol-1-yl]-2-thiophenecarboxamide] | < 100 | < 100 | < 100 | 5760 | 12.1 | < 100 | < 100
